Molecules are shown by their SMILES.

For this experiment, the target named is T1, IDO1 (Homo sapiens, UniProt P14902).
T1 construct: endogenous in cells; host or cells: HeLa cells (ATCC), IFNgamma-induced
Put plainly: IDO1 cell-based assay (HeLa cells, IFNgamma-induced, N-formylkynurenine/L-tryptophan by RFMS). The conditions noted are these: 10 ng/mL IFNgamma, 24 hours. Summed up: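 N-formylkynurenine and tryptophan peak areas in media measured by RFMS (C18, isocratic, d-Trp standard), giving IC50 values by regression. Source: HeLa cells incubated 24 h with IFNgamma (10 ng/mL) plus test compound at 0.5% DMSO; parallel CellTiter-Glo viability read.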

T1 sequence (P14902 whole entry): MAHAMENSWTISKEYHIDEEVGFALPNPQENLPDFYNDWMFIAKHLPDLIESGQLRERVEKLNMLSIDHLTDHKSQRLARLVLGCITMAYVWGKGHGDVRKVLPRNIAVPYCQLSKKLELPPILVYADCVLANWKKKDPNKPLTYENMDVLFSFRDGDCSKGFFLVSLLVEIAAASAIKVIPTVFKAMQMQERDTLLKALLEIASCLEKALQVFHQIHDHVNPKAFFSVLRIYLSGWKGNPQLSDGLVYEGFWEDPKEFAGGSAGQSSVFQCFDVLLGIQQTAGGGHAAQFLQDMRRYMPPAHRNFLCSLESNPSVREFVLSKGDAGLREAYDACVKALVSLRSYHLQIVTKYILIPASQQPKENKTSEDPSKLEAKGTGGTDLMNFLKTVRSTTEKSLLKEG

As usually defined, the IC50 is the concentration at which inhibition is half-maximal. Take `CN(C(=O)Cc1ccc(Cl)cc1)[C@H]1[C@@H]2C[C@@H](Oc3cnnc4ccccc34)C[C@@H]21` [Compound 86, 2-(4-chlorophenyl)-N-((1R,3s,5S,6r)-3-(cinnolin-4-yloxy)bicyclo[3.1.0]hexan-6-yl)-N-methylacetamide]: the IC50 fell in the range of 2000 to 5000 nM.

Compound `CC(C)(NC(=O)c1ccc(C#N)cc1)C1[C@H]2CC(n3ncc(=O)c4ccccc43)C[C@@H]12` (stereo partly drawn) [Compound 87, 4-cyano-N-(2-((1R,5S)-3-(4-oxocinnolin-1(4H)-yl)bicyclo[3.1.0]hexan-6-yl)propan-2-yl)benzamide] came in with an IC50 of under 200 nM.

For `CC(C)(NC(=O)c1ccc(C#N)cc1)C1[C@H]2CC(Oc3cnnc4ccccc34)C[C@@H]12` (stereo partly drawn) [Compound 88, N-(2-((1R,5S)-3-(cinnolin-4-yloxy)bicyclo[3.1.0]hexan-6-yl)propan-2-yl)-4-cyanobenzamide], the IC50 was under 200 nM. For `CCC(NC(=O)c1ccc(Cl)cc1)[C@H]1[C@@H]2C[C@@H](N=[N+]=[N-])C[C@@H]21` (stereo partly drawn) [Compound 90, N-(1-((1R,3s,5S,6r)-3-azidobicyclo[3.1.0]hexan-6-yl)propyl)-4-chlorobenzamide], the IC50 was in the range of 200 to 2000 nM. Regarding `CCC(NC(=O)c1ccc(Cl)cc1)[C@H]1[C@@H]2C[C@@H](Oc3c(Cl)ccnc3C)C[C@@H]21` (stereo partly drawn) [Compound 92, 4-chloro-N-(1-((1R,3s,5S,6r)-3-((4-chloro-2-methylpyridin-3-yl)oxy)bicyclo[3.1.0]hexan-6-yl)propyl)benzamide], the IC50 was under 200 nM. Consider `CCC(NC(=O)c1ccc(Cl)cc1)[C@H]1[C@@H]2C[C@@H](Oc3ccnc(C)c3F)C[C@@H]21` (stereo partly drawn) [Compound 93, 4-chloro-N-(1-((1R,3s,5S,6r)-3-((3-fluoro-2-methylpyridin-4-yl)oxy)bicyclo[3.1.0]hexan-6-yl)propyl)benzamide], for which the IC50 was under 200 nM. As to `CCC(NC(=O)c1ccc(Cl)cc1)[C@H]1[C@@H]2C[C@@H](n3cc(C(=O)O)nn3)C[C@@H]21` (stereo partly drawn) [Compound 94, 1-((1R,3s,5S,6r)-6-(1-(4-chlorobenzamido)propyl)bicyclo[3.1.0]hexan-3-yl)-1H-1,2,3-triazole-4-carboxylic acid], the IC50 is over 5000 nM.

In turn, `CCC(NC(=O)c1ccc(Cl)cc1)[C@H]1[C@@H]2C[C@@H](n3cc(C(N)=O)nn3)C[C@@H]21` (stereo partly drawn) [Compound 95, 1-((1R,3s,5S,6r)-6-(1-(4-chlorobenzamido)propyl)bicyclo[3.1.0]hexan-3-yl)-1H-1,2,3-triazole-4-carboxamide] returned an IC50 of over 5000 nM. `CCC(NC(=O)c1ccc(Cl)cc1)C1C2CC(OCC3CCOCC3)CC21` [Compound 96, 4-chloro-N-(1-((1R,3s,5S,6r)-3-((tetrahydro-2H-pyran-4-yl)methoxy)bicyclo[3.1.0]hexan-6-yl)propyl)benzamide] came in with a concentration for half-maximal inhibition (IC50) of under 200 nM. With `CCC(NC(=O)c1ccc(Cl)cc1)[C@H]1[C@@H]2C[C@@H](n3cc(C(=O)N4CCCC4)nn3)C[C@@H]21` (stereo partly drawn) [Compound 98, 4-chloro-N-(1-((1R,3s,5S,6r)-3-(4-(pyrrolidine-1-carbonyl)-1H-1,2,3-triazol-1-yl)bicyclo[3.1.0]hexan-6-yl)propyl)benzamide], the half-maximal inhibitory concentration (IC50) is under 200 nM. The result for `CCC(NC(=O)c1ccc(Cl)cc1)[C@H]1[C@@H]2C[C@@H](n3nnc4ccccc43)C[C@@H]21` (stereo partly drawn) [Compound 99, N-(1-((1R,3s,5S,6r)-3-(1H-benzo[d][1,2,3]triazol-1-yl)bicyclo[3.1.0]hexan-6-yl)propyl)-4-chlorobenzamide] reads under 200 nM; that for `CCC(NC(=O)c1ccc(Cl)cc1)[C@H]1[C@@H]2C[C@@H](n3nc4ccccc4n3)C[C@@H]21` (stereo partly drawn) [Compound 100, N-(1-((1R,3s,5S,6r)-3-(2H-benzo[d][1,2,3]triazol-2-yl)bicyclo[3.1.0]hexan-6-yl)propyl)-4-chlorobenzamide], under 200 nM. On to `CCC(NC(=O)c1ccc(Cl)cc1)[C@H]1[C@@H]2C[C@@H](OC3CCOCC3)C[C@@H]21` (stereo partly drawn) [Compound 101, 4-chloro-N-(1-((1R,3s,5S,6r)-3-((tetrahydro-2H-pyran-4-yl)oxy)bicyclo[3.1.0]hexan-6-yl)propyl)benzamide], for which the IC50 was 200 to 2000 nM.

Take `CC[C@H](NC(=O)c1ccc(Cl)cc1)[C@H]1[C@@H]2C[C@@H](Oc3cnnc4ccccc34)C[C@@H]21` [Compound 103, 4-chloro-N-((S)-1-((1R,3R,5S,6r)-3-(cinnolin-4-yloxy)bicyclo[3.1.0]hexan-6-yl)propyl)benzamide]: the IC50 is under 200 nM. In turn, `CC[C@@H](NC(=O)c1ccc(Cl)cc1)[C@H]1[C@@H]2C[C@@H](Oc3cnnc4ccccc34)C[C@@H]21` [Compound 104, 4-chloro-N-((R)-1-((1R,3S,5S,6r)-3-(cinnolin-4-yloxy)bicyclo[3.1.0]hexan-6-yl)propyl)benzamide] gave an IC50 of under 200 nM.

For `CC(NC(=O)c1ccc(C#N)cc1)C1[C@H]2CC(O)C[C@@H]12` (stereo partly drawn) [Compound 105, 4-cyano-N-(1-((1R,3r,5S,6r)-3-hydroxybicyclo[3.1.0]hexan-6-yl)ethyl)benzamide], the IC50 is over 5000 nM. As for `CC(NC(=O)c1ccc(C#N)cc1)C1[C@H]2CC(O)C[C@@H]12` (stereo partly drawn) [Compound 106, 4-cyano-N-(1-((1R,3s,5S,6r)-3-hydroxybicyclo[3.1.0]hexan-6-yl)ethyl)benzamide], the concentration for half-maximal inhibition (IC50) is over 5000 nM. In turn, `CC(NC(=O)c1ccc(C#N)cc1)C1[C@H]2CC(Oc3ncnc4ccc(F)cc34)C[C@@H]12` (stereo partly drawn) [Compound 107, 4-cyano-N-(1-((1R,3s,5S,6r)-3-((6-fluoroquinazolin-4-yl)oxy)bicyclo[3.1.0]hexan-6-yl)ethyl)benzamide] had an IC50 of under 200 nM.

In the case of `CC(NC(=O)c1ccc(C#N)cc1)[C@H]1[C@@H]2C[C@@H](n3cnc4ccc(F)cc4c3=O)C[C@@H]21` (stereo partly drawn) [Compound 108, 4-cyano-N-(1-((1R,3s,5S,6r)-3-(6-fluoro-4-oxoquinazolin-3(4H)-yl)bicyclo[3.1.0]hexan-6-yl)ethyl)benzamide], the IC50 is under 200 nM. With `O=C(Cc1ccc(Cl)cc1)NC1C2CN(c3ccnc4ccc(F)cc34)CC21` (centres unmarked) [Compound 109, 2-(4-Chlorophenyl)-N-(3-(6-fluoroquinolin-4-yl)-3-azabicyclo[3.1.0]hexan-6-yl)acetamide], the IC50 was over 5000 nM. `O=C(NC1C2CN(c3ccnc4ccc(F)cc34)CC21)C(CO)c1ccccc1` (centres unmarked) [Compound 110, N-(3-(6-fluoroquinolin-4-yl)-3-azabicyclo[3.1.0]hexan-6-yl)-3-hydroxy-2-phenylpropanamide]: the IC50 is over 5000 nM. The result for `O=C(NC1C2CN(c3ccnc4ccc(F)cc34)CC21)C(O)c1ccc(Br)cc1` (centres unmarked) [Compound 111, 2-(4-bromophenyl)-N-(3-(6-fluoroquinolin-4-yl)-3-azabicyclo[3.1.0]hexan-6-yl)-2-hydroxyacetamide] reads over 5000 nM; that for `O=C(Cc1ncc(Cl)cc1F)NC1C2CN(c3ccnc4ccc(F)cc34)CC21` (centres unmarked) [Compound 112, 2-(5-chloro-3-fluoropyridin-2-yl)-N-(3-(6-fluoroquinolin-4-yl)-3-azabicyclo[3.1.0]hexan-6-yl)acetamide], over 5000 nM.

`CCC(NC(=O)c1ccc(Cl)cc1)[C@H]1[C@@H]2C=CC[C@@H]21` (stereo partly drawn) [Compound 113, N-(1-((1R,5S,6R)-bicyclo[3.1.0]hex-2-en-6-yl)propyl)-4-chlorobenzamide] gave an IC50 of 200 to 2000 nM. `CCC(NC(=O)c1ccc(Cl)cc1)[C@H]1[C@@H]2C[C@@H](N3C(=O)C(=O)c4ccccc43)C[C@@H]21` (stereo partly drawn) [Compound 114, 4-chloro-N-(1-((1R,3s,5S,6r)-3-(2,3-dioxoindolin-1-yl)bicyclo[3.1.0]hexan-6-yl)propyl)benzamide] came in with a concentration for half-maximal inhibition (IC50) of 200 to 2000 nM.

`COc1ccc(C(=O)NC(C)[C@H]2[C@@H]3C[C@@H](Oc4ncnc5ccc(F)cc45)C[C@@H]32)cn1` (stereo partly drawn) [Compound 115, N-(1-((1R,3s,5S,6r)-3-((6-fluoroquinazolin-4-yl)oxy)bicyclo[3.1.0]hexan-6-yl)ethyl)-6-methoxynicotinamide] returned an IC50 of under 200 nM. For the compound `CCC(NC(=O)c1ccc(Cl)cc1)[C@H]1[C@@H]2C[C@@H](NS(=O)(=O)c3ccccc3)C[C@@H]21` (stereo partly drawn) [Compound 116, 4-chloro-N-(1-((1R,3s,5S,6r)-3-(phenylsulfonamido)bicyclo[3.1.0]hexan-6-yl)propyl)benzamide], the IC50 lay within 200 to 2000 nM.

`CCC(NC(=O)c1ccc(Cl)cc1)[C@H]1[C@@H]2C[C@@H](NC(=O)c3ccc4ccccc4n3)C[C@@H]21` (stereo partly drawn) [Compound 118, N-((1R,3s,5S,6r)-6-(1-(4-chlorobenzamido)propyl)bicyclo[3.1.0]hexan-3-yl)quinoline-2-carboxamide] gave an IC50 of under 200 nM.

Compound `CCC(NC(=O)c1ccc(Cl)cc1)[C@H]1[C@@H]2C[C@@H](N3C(=O)C(F)(F)c4ccccc43)C[C@@H]21` (stereo partly drawn) [Compound 119, 4-chloro-N-(1-((1R,3s,5S,6r)-3-(3,3-difluoro-2-oxoindolin-1-yl)bicyclo[3.1.0]hexan-6-yl)propyl)benzamide] had an IC50 of under 200 nM.

`CC(NC(=O)c1ccc(C#N)cc1)[C@H]1[C@@H]2C[C@@H](n3cnc4cc(F)ccc4c3=O)C[C@@H]21` (stereo partly drawn) [Compound 120, 4-cyano-N-(1-((1R,3s,5S,6r)-3-(7-fluoro-4-oxoquinazolin-3(4H)-yl)bicyclo[3.1.0]hexan-6-yl)ethyl)benzamide]: the IC50 is under 200 nM.

The compound `CCC(NC(=O)c1ccc(Cl)cc1)[C@H]1[C@@H]2C[C@@H](N3C(=O)Cc4cc(F)ccc43)C[C@@H]21` (stereo partly drawn) [Compound 121, 4-chloro-N-(1-((1R,3s,5S,6r)-3-(5-fluoro-2-oxoindolin-1-yl)bicyclo[3.1.0]hexan-6-yl)propyl)benzamide] yielded an IC50 of under 200 nM. The result for `CCC(NC(=O)c1ccc(Cl)cc1)[C@H]1[C@@H]2C[C@@H](N3C(=O)CC(C)(C)C3=O)C[C@@H]21` (stereo partly drawn) [Compound 122, 4-chloro-N-(1-((1R,3s,5S,6r)-3-(3,3-dimethyl-2,5-dioxopyrrolidin-1-yl)bicyclo[3.1.0]hexan-6-yl)propyl)benzamide] reads 2000 to 5000 nM.
